# In patent US11931389B2, “Tablet of sporoderm-removed ganoderma lucidum spore and preparation method thereof” (Zhejiang Shouxiangu Pharmaceutical Company, Ltd., priority 2017, dated 2024):
# Structures can show the parent of a compound that is named as a salt.
# Columns and labels:
# Type in all cases: in vivo
# [1] = test system: human lung adenocarcinoma (A549) transplanted tumor; experiment: Zebrafish human lung adenocarcinoma (A549) transplanted tumor model; conditions: A549, 50 μM, 2 days
# Source text: Human lung adenocarcinoma (A549) cells were labeled with a red fluorescent dye (CM-Dil), and transplanted into zebrafish yolk sacs by microinjection, with about 200 cells being transplanted per zebrafish, so as to establish a zebrafish human lung adenocarcinoma transplanted tumor model.
# (§1) Human lung adenocarcinoma (A549) cells were labeled with CM-Dil, and transplanted into 2 dpf wild type AB strain zebrafish yolk sacs by microinjection, with about 200 cells being transplanted per zebrafish, so as to establish a zebrafish human lung adenocarcinoma (A549) transplanted model; and the zebrafishes injected with the A549 cells were fed at 35° C. until 3 dpf.
# (§2) Zebrafishes with better consistence in transplanted tumor cells were picked out under a microscope, randomly assigned to a 6-well plate, and were given in a water-dissolving administration manner respectively with the samples at concentrations respectively of 1, 3 and 9 μg/mL and the positive control drug cis-platinum at a concentration of 50 μM; and meanwhile a model control group was set, where there were 30 zebrafishes per well (concentration group), and the volume of each well was 5 mL. […] The inhibitory effect of the sample No. 3 on the zebrafish lung adenocarcinoma (A549) transplanted tumor was evaluated with the fluorescence intensities, and the tumor inhibition effect was calculated using the following equation. […]
# [2] = test system: human gastric cancer (SGC-7901) transplanted tumor; experiment: Zebrafish human gastric cancer (SGC-7901) transplanted tumor model; conditions: SGC-7901, 50 μM, 2 days
# Source text: Human gastric cancer (SGC-7901) cells were labeled with a red fluorescent dye (CM-Dil), and transplanted into zebrafish yolk sacs by microinjection, with about 200 cells being transplanted per zebrafish, so as to establish the zebrafish human gastric cancer transplanted tumor model.
# as §1, with “gastric cancer (SGC-7901)” for “lung adenocarcinoma (A549)”, “cells” for “cells being transplanted”, “SGC-7901” for “A549”
# Zebrafishes with better consistence in transplanted tumor cells were picked out under a microscope, randomly assigned to a 6-well plate, and were given in a water-dissolving administration manner respectively with the samples at concentrations respectively of 28, 83 and 250 μg/mL and the positive control drug cis-platinum at a concentration of 50 μM; and meanwhile a model control group was set, where there were 30 zebrafishes per well, and the volume of each well was 5 mL. […] The inhibitory effects of samples on the zebrafish gastric cancer (SGC-7901) transplanted tumor were respectively evaluated with the fluorescence intensities, and the tumor inhibition effect was calculated using the following equation. […]
# [3] = test system: human lymphatic cancer (Ramos) transplanted tumor; experiment: Zebrafish human lymphatic cancer (Ramos) transplanted tumor model; conditions: Danio rerio, 48 h, 2 days, read-out: Inhibition Effect
# Source text: Human lymphatic cancer (Ramos) cells were labeled with a red fluorescent dye (CM-Dil), and transplanted into zebrafish yolk sacs by microinjection, with about 200 cells being transplanted per zebrafish, so as to establish a zebrafish human lymphatic cancer transplanted tumor model.
# as §1, with “Human lymphatic cancer (Ramos)” for “Human lung adenocarcinoma (A549)”, “human lymphatic cancer” for “human lung adenocarcinoma (A549)”, “the human lymphatic cancer” for “the A549”
# as §2, with “vincristine” for “cis-platinum”, “5” for “50”, “sample” for “sample No. 3”, “lymphatic cancer (Ramos)” for “lung adenocarcinoma (A549)”
SMILES,Inhibition Effect [1] [%],Inhibition Effect [2] [%],inhibition at 5 µM [3] [%]
"N.N.[Cl][Pt][Cl] [cis-platinum, Cis-platinum]",29,37,–
"CC[C@]1(O)C[C@H]2CN(CCc3c([nH]c4ccccc34)[C@@](C(=O)OC)(c3cc4c(cc3OC)N(C=O)[C@H]3[C@@](O)(C(=O)OC)[C@H](OC(C)=O)[C@]5(CC)C=CCN6CC[C@]43[C@@H]65)C2)C1 [vincristine, Vincristine sulfate]",–,–,35
